Assays:
male and female carp = test: Electrophysiological and behavioural studies in an experimental behaviour chamber; type: in vivo
Text: A particular composition which includes either a pure or crude synthetic form of 17,20β-dihydroxy-4-pregnen-3-one with an ethanol carrier has been tested by the inventors in laboratory experiments.

carp = test: Behavioural response of carp in a Perspex flow-through experimental flume; type: in vivo
Description: The behaviour of carp in response to 17,20β-dihydroxy-4-pregnen-3-one was studied in a Perspex flow-through experimental flume. Fish were placed in the flume individually and allowed to acclimatise for a minimum of 1 hour before each experiment. The first set of experiments determined the behavioural response of male (n=5) and female (n=5) carp to serial dilutions of pure and synthetic form of 17,20β-dihydroxy-4-pregnen-3-one. Dilutions ranged from one part in 10^5 to one part in 10^11. The second set of experiments tested the behavioural response of male and female carp (n=6) to the same serial dilutions of synthetic 17,20β-dihydroxy-4-pregnen-3-one as used in Experiment 1, but with the addition of 5 dyed-gelatine pellets on the bottom of the flume. […] This feeding behaviour was characterised by the following: […]

[1] = tested on: olfactory system of the male fish; details: olfactory detection of the sex pheromone, Sorenson et al. 1987; cited from earlier work

C[C@@H](O)[C@@]1(O)CC[C@H]2[C@@H]3CCC4=CC(=O)CC[C@]4(C)[C@H]3CC[C@@]21C [17,20β-dihydroxy-4-pregnen-3-one]
feeding behaviour on detection of the hormone (male and female carp; experimental behaviour chamber): results in feeding behaviour
detection of the hormone by the fish (male and female carp; pure or crude synthetic form with an ethanol carrier): detected by both male and female carp
feeding behaviour in carp (carp; added to the behaviour chamber at concentrations ranging from 10^−5 to one part in 10^−10): resulted in feeding behaviour in carp
attraction of fish (carp; sexually immature carp): attracted immature carp
feeding behaviour in immature carp (carp; sexually immature carp): resulted in feeding behaviour in these individuals
threshold concentration for the male fish [1]: about 10^−13 M

Reference: patent US20040029276A1, “Fish attractants” (priority 2000, published 2004)
